In patent publication US12077503B2, “Substituted cyclic amides and their use as herbicides” (FMC CORPORATION, priority 2015, dated 2024):

Tests used:
Type in all cases: in vivo
[1] = test system: ryegrass, Italian (Italian ryegrass, Lolium multiflorum); assay: Test A preemergence; conditions: Lolium multiflorum, pre-emergence, 240 h, preemergence, 0 to 100 scale where 0 is no effect and 100 is complete control, read-out: Ryegrass, Italian plant response rating; for pest or weed control at 125 g/ha: 125 g ai/ha, approx. 10 d; for pest or weed control at 500 g/ha: 500 g ai/ha
In short: (§1)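 Ratings of 0 (no effect) to 100 (complete control) come from visual comparison with untreated controls roughly 10 d after treatment. Test chemicals, formulated in a non-phytotoxic solvent mixture with surfactant, were applied either as a preemergence directed soil spray on seeded soil or postemergence to one- to two-leaf plants 2 to 10 cm tall.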

[2] = test system: barnyardgrass (Echinochloa crus-galli); assay: Test A preemergence; conditions: Echinochloa crus-galli, pre-emergence, 240 h, preemergence, 0 to 100 scale where 0 is no effect and 100 is complete control, read-out: Barnyardgrass plant response rating; for pest or weed control at 125 g/ha: 125 g ai/ha, approx. 10 d; for pest or weed control at 500 g/ha: 500 g ai/ha
In short: as §1

[3] = test system: giant foxtail (Setaria faberii); assay: Test A preemergence; conditions: Setaria faberi, pre-emergence, 240 h, preemergence, 0 to 100 scale where 0 is no effect and 100 is complete control, read-out: Foxtail, Giant plant response rating; for pest or weed control at 125 g/ha: 125 g ai/ha, approx. 10 d; for pest or weed control at 500 g/ha: 500 g ai/ha
In short: as §1

[4] = test system: pigweed (Amaranthus retroflexus); assay: Test A preemergence; conditions: Amaranthus retroflexus, pre-emergence, 240 h, preemergence, 0 to 100 scale where 0 is no effect and 100 is complete control, read-out: Pigweed plant response rating; for pest or weed control at 125 g/ha: 125 g ai/ha, approx. 10 d; for pest or weed control at 500 g/ha: 500 g ai/ha
[5] = test system: ragweed (common ragweed, Ambrosia elatior); assay: Test A preemergence; conditions: Ambrosia artemisiifolia, pre-emergence, 240 h, preemergence, 0 to 100 scale where 0 is no effect and 100 is complete control, read-out: Ragweed plant response rating; for pest or weed control at 125 g/ha: 125 g ai/ha, approx. 10 d; for pest or weed control at 500 g/ha: 500 g ai/ha
In short: as §1

Kochia (Kochia scoparia) [6] = assay: Test A preemergence; conditions: Bassia scoparia, pre-emergence, 240 h, preemergence, 0 to 100 scale where 0 is no effect and 100 is complete control, read-out: Kochia plant response rating; for pest or weed control at 125 g/ha: 125 g ai/ha, approx. 10 d; for pest or weed control at 500 g/ha: 500 g ai/ha
In short: as §1

rice (Oryra sativa) = assay: Test B flooded paddy test; conditions: Oryza sativa, 250 g ai/ha, Flood; 0 to 100 scale where 0 is no effect and 100 is complete control; read-out: Rice plant response rating
In short: (§2)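 Visual ratings (0 none to 100 complete control) are relative to untreated plants, taken 13–15 d after treatment in a greenhouse. Test material went straight into floodwater standing 3 cm above the soil, kept constant, on plants at the 2-leaf stage.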

[7] = test system: barnyardgrass (Echinochloa crus-galli); assay: Test B flooded paddy test; conditions: Echinochloa crus-galli, 250 g ai/ha, Flood; 0 to 100 scale where 0 is no effect and 100 is complete control; read-out: Barnyardgrass plant response rating
In short: as §2

[8] = test system: ducksalad (Heteranthera limosa); assay: Test B flooded paddy test; conditions: Heteranthera limosa, 250 g ai/ha, Flood; 0 to 100 scale where 0 is no effect and 100 is complete control; read-out: Ducksalad plant response rating
In short: as §2

[9] = test system: sedge, umbrella (small-flower umbrella sedge, Cyperus difformis); assay: Test B flooded paddy test; conditions: Cyperus difformis, 250 g ai/ha, Flood; 0 to 100 scale where 0 is no effect and 100 is complete control; read-out: Sedge, Umbrella plant response rating
In short: as §2

[10] = test system: barnyardgrass (Echinochloa crus-galli); assay: Test A postemergence; conditions: Echinochloa crus-galli, post-emergence, 240 h, postemergence, read-out: Barnyardgrass plant response rating; for pest or weed control at 125 g/ha: 125 g ai/ha, visual injury on 0 to 100 scale (0 no effect, 100 complete control), approx. 10 d; for pest or weed control at 500 g/ha: 500 g ai/ha, 0 to 100 scale, 0 is no effect, 100 is complete control
In short: as §1

[11] = test system: Galium (catchweed bedstraw, Galium aparine); assay: Test A postemergence; conditions: Galium, post-emergence, 240 h, postemergence, read-out: Galium plant response rating; for pest or weed control at 125 g/ha: 125 g ai/ha, visual injury on 0 to 100 scale (0 no effect, 100 complete control), approx. 10 d; for pest or weed control at 500 g/ha: 500 g ai/ha, 0 to 100 scale, 0 is no effect, 100 is complete control
In short: as §1

corn (Zea mays) = assay: Test A postemergence; conditions: Zea mays, post-emergence, 240 h, postemergence, read-out: Corn plant response rating; for plant injury at 125 g/ha: 125 g ai/ha, visual injury on 0 to 100 scale (0 no effect, 100 complete control), approx. 10 d; for plant injury at 500 g/ha: 500 g ai/ha, 0 to 100 scale, 0 is no effect, 100 is complete control
In short: as §1

[12] = test system: pigweed (Amaranthus retroflexus); assay: Test A postemergence; conditions: Amaranthus retroflexus, post-emergence, 240 h, postemergence, read-out: Pigweed plant response rating; for pest or weed control at 125 g/ha: 125 g ai/ha, visual injury on 0 to 100 scale (0 no effect, 100 complete control), approx. 10 d; for pest or weed control at 500 g/ha: 500 g ai/ha, 0 to 100 scale, 0 is no effect, 100 is complete control
In short: as §1

Kochia (Kochia scoparia) [13] = assay: Test A postemergence; conditions: Bassia scoparia, post-emergence, 240 h, postemergence, read-out: Kochia plant response rating; for pest or weed control at 125 g/ha: 125 g ai/ha, visual injury on 0 to 100 scale (0 no effect, 100 complete control), approx. 10 d; for pest or weed control at 500 g/ha: 500 g ai/ha, 0 to 100 scale, 0 is no effect, 100 is complete control
In short: as §1

Structure (SMILES) | pest or weed control at 125 g/ha [1] [%] | pest or weed control at 500 g/ha [1] [%] | pest or weed control at 125 g/ha [2] [%] | pest or weed control at 500 g/ha [2] [%] | pest or weed control at 125 g/ha [3] [%] | pest or weed control at 500 g/ha [3] [%] | pest or weed control at 125 g/ha [4] [%] | pest or weed control at 500 g/ha [4] [%] | pest or weed control at 125 g/ha [5] [%] | pest or weed control at 500 g/ha [5] [%] | pest or weed control at 125 g/ha (Kochia (Kochia scoparia) [6]) [%] | pest or weed control at 500 g/ha (Kochia (Kochia scoparia) [6]) [%] | pest or weed control at 250 g/ha (rice (Oryra sativa)) [%] | pest or weed control at 250 g/ha [7] [%] | pest or weed control at 250 g/ha [8] [%] | pest or weed control at 250 g/ha [9] [%] | pest or weed control at 125 g/ha [10] [%] | pest or weed control at 500 g/ha [10] [%] | pest or weed control at 125 g/ha [11] [%] | pest or weed control at 500 g/ha [11] [%] | other results
CN1CC(c2cccc(O)c2)C(C(=O)Nc2cccc(F)c2F)C1=O (stereo not shown) [Compound 1130] | 0 | 0 | 0 | 0 | 0 | 30 | 0 | 0 | 0 | 0 | 0 | 0 | 0 | 0 | 0 | 0 | 0 | 20 | 0 | 0 | plant injury at 125 g/ha (corn (Zea mays)): 0%; plant injury at 500 g/ha (corn (Zea mays)): 0%; pest or weed control at 125 g/ha [12]: 0%; pest or weed control at 500 g/ha [12]: 0%; pest or weed control at 125 g/ha (Kochia (Kochia scoparia) [13]): 0%; pest or weed control at 500 g/ha (Kochia (Kochia scoparia) [13]): 0%
O=C1NC[C@H](c2ccc(F)c(OC(F)(F)C(F)F)c2)[C@H]1C(=O)Nc1ccccc1F [Compound 1133] | 20 | 30 | 90 | 90 | 90 | 90 | 30 | 70 | 40 | 60 | 60 | 100 | 0 | 50 | 85 | 0 | 80 | 90 | 70 | 70 | plant injury at 125 g/ha (corn (Zea mays)): 50%; plant injury at 500 g/ha (corn (Zea mays)): 80%; pest or weed control at 125 g/ha [12]: 0%; pest or weed control at 500 g/ha [12]: 70%; pest or weed control at 125 g/ha (Kochia (Kochia scoparia) [13]): 30%; pest or weed control at 500 g/ha (Kochia (Kochia scoparia) [13]): 70%
CC(C)Oc1ccc([C@H]2CNC(=O)[C@@H]2C(=O)Nc2ccccc2F)cc1 [Compound 1135] | 0 | 0 | 0 | 0 | 0 | 0 | 0 | 0 | 0 | 0 | 0 | 0 | 0 | 0 | 40 | 0 | 0 | 0 | 0 | 0 | plant injury at 125 g/ha (corn (Zea mays)): 0%; plant injury at 500 g/ha (corn (Zea mays)): 0%; pest or weed control at 125 g/ha [12]: 0%; pest or weed control at 500 g/ha [12]: 0%; pest or weed control at 125 g/ha (Kochia (Kochia scoparia) [13]): 0%; pest or weed control at 500 g/ha (Kochia (Kochia scoparia) [13]): 0%
CC(C)Oc1ccc([C@H]2CNC(=O)[C@@H]2C(=O)Nc2cccc(F)c2F)cc1 [Compound 1136] | 0 | 30 | 30 | 90 | 30 | 90 | 0 | 0 | 0 | 0 | 0 | 80 | 0 | 0 | 85 | 0 | 30 | 90 | 0 | 20 | plant injury at 125 g/ha (corn (Zea mays)): 0%; plant injury at 500 g/ha (corn (Zea mays)): 0%; pest or weed control at 125 g/ha [12]: 0%; pest or weed control at 500 g/ha [12]: 0%; pest or weed control at 125 g/ha (Kochia (Kochia scoparia) [13]): 0%; pest or weed control at 500 g/ha (Kochia (Kochia scoparia) [13]): 0%
CC(C)Oc1ccc([C@H]2CNC(=O)[C@@H]2C(=O)Nc2ccc(F)cc2F)cc1 [Compound 1137] | 0 | 0 | 0 | 0 | 0 | 0 | 0 | 0 | 0 | 0 | 0 | 0 | 0 | 0 | 0 | 0 | 0 | 0 | 0 | 0 | plant injury at 125 g/ha (corn (Zea mays)): 0%; plant injury at 500 g/ha (corn (Zea mays)): 0%; pest or weed control at 125 g/ha [12]: 0%; pest or weed control at 500 g/ha [12]: 0%; pest or weed control at 125 g/ha (Kochia (Kochia scoparia) [13]): 0%; pest or weed control at 500 g/ha (Kochia (Kochia scoparia) [13]): 0%
